The results in this text go back to patent US9365576B2, “Pyrrolopyrrolidinone compounds” (Novartis AG, priority 2012, dated 2016).

Molecules are shown by their SMILES.

The test concerns the target human MDM2 protein (amino acids 2-188) (Homo sapiens (Human), UniProt Q00987). As to the kind of experiment: TR-FRET assay, p53-MDM2 Assay 2 (modified). It counts as binding. Conditions: TR-FRET; 0.1 nM MDM2, 0.1 nM Europium labeled streptavidin, Tecan genios Pro reader; read-out: IC50 p53-MDM2 Assay 2. An outline of the steps: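 Biotinylated human MDM2 (aa 2–188, 1.25 nM) was preincubated 15 min at room temperature with 0.625 nM Eu-streptavidin, then 10 nM Cy5-p53 peptide (aa 18–26) added for 15 min. TR-FRET ratio 665/620 nm (excitation 340 nm) was read; IC50 came from curve fitting.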
For orientation: Time-resolved FRET reads energy transfer from a long-lived donor to a nearby acceptor.

Chain of human MDM2 protein (amino acids 2-188) (Q00987 2-188): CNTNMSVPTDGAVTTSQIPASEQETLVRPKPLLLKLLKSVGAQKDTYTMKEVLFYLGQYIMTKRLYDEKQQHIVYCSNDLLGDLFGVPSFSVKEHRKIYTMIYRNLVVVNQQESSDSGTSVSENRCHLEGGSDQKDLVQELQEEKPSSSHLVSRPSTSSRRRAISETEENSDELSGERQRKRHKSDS

As a reminder, the IC50 is the point on the concentration scale where inhibition reaches its midpoint. `COc1nc(N(C)C)ncc1-c1cc2c(n1C(C)C)C(c1ccc(Cl)c(F)c1)N(c1cc(Cl)c[nH]c1=O)C2=O` (stereo not drawn) [Example 203, 6-(4-Chloro-3-fluoro-phenyl)-5-(5-chloro-2-oxo-1,2-dihydro-pyridin-3-yl)-2-(2-dimethylamino-4-methoxy-pyrimidin-5-yl)-1-isopropyl-5,6-dihydro-1H-pyrrolo[3,4-b]pyrrol-4-one]: the IC50 stood at 119 pM.
As for `COc1ccc(S(C)(=O)=O)cc1-c1cc2c(n1C(C)C)C(c1ccc(Cl)cc1)N(c1cn(C)nc1C)C2=O` (stereo not drawn) [Example 183, 6-(4-Chloro-phenyl)-5-(1,3-dimethyl-1H-pyrazol-4-yl)-1-isopropyl-2-(5-methanesulfonyl-2-methoxy-phenyl)-5,6-dihydro-1H-pyrrolo[3,4-b]pyrrol-4-one], the figure is 2570 pM; as for `COc1ncc(-c2cc3c(n2C(C)C)[C@@H](c2ccc(C#N)cc2)N(c2cc(Cl)c(=O)n(C)c2)C3=O)c(OC)n1` [Example 187, 4-[(R)-5-(5-Chloro-1-methyl-6-oxo-1,6-dihydro-pyridin-3-yl)-2-(2,4-dimethoxy-pyrimidin-5-yl)-1-isopropyl-4-oxo-1,4,5,6-tetrahydro-pyrrolo[3,4-b]pyrrol-6-yl]-benzonitrile], 144000 pM.
As to `COc1nc(N)ncc1-c1cc2c(n1C(C)C)C(c1ccc(Cl)cc1C)N(c1cc(Cl)c(=O)n(C)c1)C2=O` (stereo not drawn) [Example 148, 2-(2-Amino-4-methoxy-pyrimidin-5-yl)-5-(5-chloro-1-methyl-6-oxo-1,6-dihydro-pyridin-3-yl)-6-(4-chloro-2-methyl-phenyl)-1-isopropyl-5,6-dihydro-1H-pyrrolo[3,4-b]pyrrol-4-one], the half-maximal inhibitory concentration (IC50) was found to be 592 pM.
For `COc1ccccc1-c1cc2c(n1C(C)C)C(c1ccc(Cl)cc1C)N(c1cc(Cl)c(=O)n(C)c1)C2=O` (stereo not drawn) [Example 144, 5-(5-Chloro-1-methyl-6-oxo-1,6-dihydro-pyridin-3-yl)-6-(4-chloro-2-methyl-phenyl)-1-isopropyl-2-(2-methoxy-phenyl)-5,6-dihydro-1H-pyrrolo[3,4-b]pyrrol-4-one] the value was 554 pM; for `COc1ncc(-c2cc3c(n2C(C)C)C(c2ccc(Cl)cc2)N(C2CN(C)C(=O)N(C)C2)C3=O)c(OC)n1` (stereo not drawn) [Example 110, 6-(4-Chloro-phenyl)-2-(2,4-dimethoxy-pyrimidin-5-yl)-5-(1,3-dimethyl-2-oxo-hexahydro-pyrimidin-5-yl)-1-isopropyl-5,6-dihydro-1H-pyrrolo[3,4-b]pyrrol-4-one], 741 pM; for `COc1nc(N(C)C)ncc1-c1cc2c(n1C(C)C)C(c1ccc(C#N)cc1)N(c1cc(Cl)c(=O)n(C)c1)C2=O` (stereo not drawn) [Example 185, 4-[5-(5-Chloro-1-methyl-6-oxo-1,6-dihydro-pyridin-3-yl)-2-(2-dimethylamino-4-methoxy-pyrimidin-5-yl)-1-isopropyl-4-oxo-1,4,5,6-tetrahydro-pyrrolo[3,4-b]pyrrol-6-yl]-benzonitrile], 225 pM.
For `COc1ncc(-c2cc3c(n2C(C)C)C(c2ccc(C#N)cc2)N([C@H]2CC[C@H](O)CC2)C3=O)c(OC)n1` (stereo partly drawn) [Example 173, 4-[2-(2,4-Dimethoxy-pyrimidin-5-yl)-5-(trans-4-hydroxy-cyclohexyl)-1-isopropyl-4-oxo-1,4,5,6-tetrahydro-pyrrolo[3,4-b]pyrrol-6-yl]-benzonitrile], the IC50 turned out to be 13600 pM.
For `COc1ncc(-c2cc3c(n2C(C)C)C(c2ccc(C#N)cc2)N(c2ccc(F)c(Cl)c2)C3=O)c(OC)n1` (stereo not drawn) [Example 40, 4-[5-(3-Chloro-4-fluoro-phenyl)-2-(2,4-dimethoxy-pyrimidin-5-yl)-1-isopropyl-4-oxo-1,4,5,6-tetrahydro-pyrrolo[3,4-b]pyrrol-6-yl]-benzonitrile] the value was 478 pM; for `COc1nc(N)ncc1-c1cc2c(n1C(C)C)C(c1ccc(Cl)cc1)N(c1cc(C)nn1C)C2=O` (stereo not drawn) [Example 175, 2-(2-Amino-4-methoxy-pyrimidin-5-yl)-6-(4-chloro-phenyl)-5-(2,5-dimethyl-2H-pyrazol-3-yl)-1-isopropyl-5,6-dihydro-1H-pyrrolo[3,4-b]pyrrol-4-one], 3720 pM.
For `COc1ncc(-c2cc3c(n2C(C)C)[C@](C)(c2ccc(Cl)cc2)N(c2cc(Cl)c(=O)n(C)c2)C3=O)c(OC)n1` [Example 162, (S)-5-(5-Chloro-1-methyl-6-oxo-1,6-dihydro-pyridin-3-yl)-6-(4-chloro-phenyl)-2-(2,4-dimethoxy-pyrimidin-5-yl)-1-isopropyl-6-methyl-5,6-dihydro-1H-pyrrolo[3,4-b]pyrrol-4-one], the IC50 was determined as 49000 pM.
Regarding `COc1nc(N(C)C)ncc1-c1c(C(=O)O)c2c(n1C(C)C)C(c1ccc(Cl)cc1)N(c1cc(Cl)c(=O)n(C)c1)C2=O` (stereo not drawn) [Example 226, 5-(5-Chloro-1-methyl-6-oxo-1,6-dihydro-pyridin-3-yl)-6-(4-chloro-phenyl)-2-(2-dimethylamino-4-methoxy-pyrimidin-5-yl)-1-isopropyl-4-oxo-1,4,5,6-tetrahydro-pyrrolo[3,4-b]pyrrole-3-carboxylic acid], the IC50 is 132 pM.
Turning to `CNC(=O)c1ccc(OC)c(-c2cc3c(n2C(C)C)[C@H](c2ccc(Cl)cc2)N(c2cc(Cl)ccc2C)C3=O)c1` [Example 18, 3-[(S)-5-(5-Chloro-2-methyl-phenyl)-6-(4-chloro-phenyl)-1-isopropyl-4-oxo-1,4,5,6-tetrahydro-pyrrolo[3,4-b]pyrrol-2-yl]-4-methoxy-N-methyl-benzamide], the IC50 stood at 95 pM.
Take `COc1ncc(-c2c(C(=O)O)c3c(n2C(C)C)C(c2ccc(Cl)cc2)N(c2cc(Cl)c(=O)n(C)c2)C3=O)c(OC)n1` (stereo not drawn) [Example 221, 5-(5-Chloro-1-methyl-6-oxo-1,6-dihydro-pyridin-3-yl)-6-(4-chloro-phenyl)-2-(2,4-dimethoxy-pyrimidin-5-yl)-1-isopropyl-4-oxo-1,4,5,6-tetrahydro-pyrrolo[3,4-b]pyrrole-3-carboxylic acid]: the IC50 stood at 140 pM.
For `COc1nc(N(C)C)ncc1-c1cc2c(n1C(C)C)C(c1ccc(Cl)cc1)N(c1ccc(F)c(Cl)c1)C2=O` (stereo not drawn) [Example 58, 5-(3-Chloro-4-fluoro-phenyl)-6-(4-chloro-phenyl)-2-(2-dimethylamino-4-methoxy-pyrimidin-5-yl)-1-isopropyl-5,6-dihydro-1H-pyrrolo[3,4-b]pyrrol-4-one] the value was 458 pM; for `COc1ccc(C#N)cc1-c1cc2c(n1C(C)C)C(c1ccc(Cl)cc1)N(C1CCOCC1)C2=O` (stereo not drawn) [Example 77, 3-[6-(4-Chloro-phenyl)-1-isopropyl-4-oxo-5-(tetrahydro-pyran-4-yl)-1,4,5,6-tetrahydro-pyrrolo[3,4-b]pyrrol-2-yl]-4-methoxy-benzonitrile], 1510 pM; for `COc1ncc(-c2cc3c(n2C(C)C)C(c2ccc(C#N)cc2)N(c2cc(Cl)cn(C)c2=O)C3=O)c(OC)n1` (stereo not drawn) [Example 132, 4-[5-(5-Chloro-1-methyl-2-oxo-1,2-dihydro-pyridin-3-yl)-2-(2,4-dimethoxy-pyrimidin-5-yl)-1-isopropyl-4-oxo-1,4,5,6-tetrahydro-pyrrolo[3,4-b]pyrrol-6-yl]-benzonitrile], 1150 pM.
For `COc1ncc(-c2cc3c(n2C(C)C)C(c2ccc(C#N)cc2)N(c2cc(Cl)ccc2C)C3=O)c(OC)n1` (stereo not drawn) [Example 44, 4-[5-(5-Chloro-2-methyl-phenyl)-2-(2,4-dimethoxy-pyrimidin-5-yl)-1-isopropyl-4-oxo-1,4,5,6-tetrahydro-pyrrolo[3,4-b]pyrrol-6-yl]-benzonitrile], the IC50 was found to be 167 pM.
Consider `COc1ccncc1-c1cc2c(n1C(C)C)C(c1ccc(Cl)cc1C)N(c1cccc(Cl)c1F)C2=O` (stereo not drawn) [Example 6, 5-(3-Chloro-2-fluoro-phenyl)-6-(4-chloro-2-methyl-phenyl)-1-isopropyl-2-(4-methoxy-Pyridin-3-yl)-5,6-dihydro-1H-pyrrolo[3,4-b]pyrrol-4-one], for which the IC50 was determined as 172 pM.
With `COc1ncc(-c2cc3c(n2C(C)C)C(c2ccc(Cl)cc2)N(c2cc(Cl)ccc2C#N)C3=O)c(OC)n1` (stereo not drawn) [Example 98, 4-Chloro-2-[6-(4-chloro-phenyl)-2-(2,4-dimethoxy-pyrimidin-5-yl)-1-isopropyl-4-oxo-4,6-dihydro-1H-pyrrolo[3,4-b]pyrrol-5-yl]-benzonitrile], the IC50 amounted to 316 pM.
`COc1ncncc1-c1cc2c(n1C(C)C)C(c1ccc(Cl)cc1)N(c1cc(Cl)ccc1C)C2=O` (stereo not drawn) [Example 16, 5-(5-Chloro-2-methyl-phenyl)-6-(4-chloro-phenyl)-1-isopropyl-2-(4-methoxy-pyrimidin-5-yl)-5,6-dihydro-1H-pyrrolo[3,4-b]pyrrol-4-one]: the IC50 stood at 308 pM.
Regarding `CNC(=O)Cc1cc(-c2cc3c(n2C(C)C)C(c2ccc(C#N)cc2)N(c2cccc(Cl)c2F)C3=O)c(OC)cn1` (stereo not drawn) [Example 86, 2-{4-[5-(3-Chloro-2-fluoro-phenyl)-6-(4-cyano-phenyl)-1-isopropyl-4-oxo-1,4,5,6-tetrahydro-pyrrolo[3,4-b]pyrrol-2-yl]-5-methoxy-pyridin-2-yl}-N-methyl-acetamide], the half-maximal inhibitory concentration (IC50) worked out at 334 pM.
Turning to `COc1nc(N(C)C)ncc1-c1cc2c(n1C(C)C)[C@@H](c1ccc(C#N)cc1)N(c1ccc(F)c(Cl)c1)C2=O` [Example 170, 4-[(R)-5-(3-Chloro-4-fluoro-phenyl)-2-(2-dimethylamino-4-methoxy-pyrimidin-5-yl)-1-isopropyl-4-oxo-1,4,5,6-tetrahydro-pyrrolo[3,4-b]pyrrol-6-yl]-benzonitrile], the IC50 was 31300 pM.
As for `COc1nc(N(C)C)ncc1-c1cc2c(n1C(C)C)C(c1ccc(Cl)c(F)c1)N(c1cc(Cl)c(=O)n(C)c1)C2=O` (stereo not drawn) [Example 193, 6-(4-Chloro-3-fluoro-phenyl)-5-(5-chloro-1-methyl-6-oxo-1,6-dihydro-pyridin-3-yl)-2-(2-dimethylamino-4-methoxy-pyrimidin-5-yl)-1-isopropyl-5,6-dihydro-1H-pyrrolo[3,4-b]pyrrol-4-one], the figure is 139 pM.
